Reference: PubChem BioAssay AID256 (DTP/NCI, 2004)
Where “and” joins values, the source holds several entries; their conditions need not be identical. Equal entries are not always repeated. Inconclusive results and toxic doses are left out. Rule for the calls: active = survival T/C of 150% or more; inactive = T/C below 125% in these data.

Tested on: CD2F1 mice, L1210 leukemia ip, survival T/C
Experiment: NCI In Vivo Anticancer Drug Screen. Data for tumor model L1210 Leukemia (intraperitoneal) in CD2F1 (CDF1) mice
Conditions: higher = longer survival
In short: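 Mice carrying a transplanted tumor received test compound or vehicle alone. The value is the measurement in the treated group divided by that in the vehicle-treated control group.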

[1] = endpoint: mean survival time, dose: 50.0 mg/kg/injection, schedule: Q01DX009 (ip), vehicle: saline with Tween-80
[2] = endpoint: mean survival time, dose: 100.0 mg/kg/injection, schedule: Q04DX002 (ip), vehicle: saline with Tween-80
[3] = endpoint: mean survival time, dose: 200.0 mg/kg/injection, schedule: Q04DX002 (ip), vehicle: saline with Tween-80
[4] = endpoint: mean survival time, dose: 400.0 mg/kg/injection, schedule: Q04DX002 (ip), vehicle: saline with Tween-80
[5] = endpoint: mean survival time, dose: 12.5 mg/kg/injection, schedule: Q01DX009 (ip), vehicle: saline with Tween-80
[6] = endpoint: mean survival time, dose: 25.0 mg/kg/injection, schedule: Q01DX009 (ip), vehicle: saline with Tween-80
[7] = endpoint: mean survival time, dose: 100.0 mg/kg/injection, schedule: Q01DX009 (ip), vehicle: saline with Tween-80
[8] = endpoint: mean survival time, dose: 200.0 mg/kg/injection, schedule: Q01DX009 (ip), vehicle: saline with Tween-80
[9] = endpoint: mean survival time, dose: 400.0 mg/kg/injection, schedule: Q01DX009 (ip), vehicle: saline with Tween-80

Measured: T/C

C=CN1CCCC1=O
inactive: endpoint: mean survival time, dose: 100.0 mg/kg/injection, schedule: Q04DX003 (ip), vehicle: saline with Tween-80 98 % of control | endpoint: mean survival time, dose: 200.0 mg/kg/injection, schedule: Q04DX003 (ip), vehicle: saline with Tween-80 101 % of control | endpoint: mean survival time, dose: 400.0 mg/kg/injection, schedule: Q04DX003 (ip), vehicle: saline with Tween-80 95 % of control | endpoint: mean survival time, dose: 1400.0 mg/kg/injection, schedule: Q01DX001 (ip), vehicle: saline 101 % of control | endpoint: mean survival time, dose: 1600.0 mg/kg/injection, schedule: Q01DX001 (ip), vehicle: saline 110 % of control | endpoint: mean survival time, dose: 1800.0 mg/kg/injection, schedule: Q01DX001 (ip), vehicle: saline 117 % of control | endpoint: mean survival time, dose: 2000.0 mg/kg/injection, schedule: Q01DX001 (ip), vehicle: saline 114 % of control | endpoint: median survival time, dose: 1.9 grams/kg/injection, schedule: Q01DX001 (iv), vehicle: saline 100 % of control | endpoint: median survival time, dose: 1.9 grams/kg/injection, schedule: Q01DX005 (iv), vehicle: saline 112 % of control | endpoint: median survival time, dose: 1.9 grams/kg/injection, schedule: Q03HX008 (ip), vehicle: saline 112 % of control | endpoint: median survival time, dose: 1.9 grams/kg/injection, schedule: Q03HX016 (ip), vehicle: saline 106 % of control | endpoint: median survival time, dose: 1.9 grams/kg/injection, schedule: Q03HX024 (ip), vehicle: saline 112 % of control | endpoint: median survival time, dose: 1.9 grams/kg/injection, schedule: Q04DX003 (iv), vehicle: saline 112 % of control | endpoint: median survival time, dose: 3.8 grams/kg/injection, schedule: Q01DX001 (ip), vehicle: saline 112 % of control | endpoint: median survival time, dose: 3.8 grams/kg/injection, schedule: Q01DX001 (iv), vehicle: saline 100 % of control | endpoint: median survival time, dose: 3.8 grams/kg/injection, schedule: Q01DX005 (ip), vehicle: saline 100 % of control | endpoint: median survival time, dose: 3.8 grams/kg/injection, schedule: Q01DX005 (iv), vehicle: saline 100 % of control | endpoint: median survival time, dose: 3.8 grams/kg/injection, schedule: Q01DX009 (ip), vehicle: saline 100 % of control | endpoint: median survival time, dose: 3.8 grams/kg/injection, schedule: Q03HX008 (ip), vehicle: saline 112 % of control | endpoint: median survival time, dose: 3.8 grams/kg/injection, schedule: Q03HX016 (ip), vehicle: saline 112 % of control | endpoint: median survival time, dose: 3.8 grams/kg/injection, schedule: Q03HX024 (ip), vehicle: saline 112 % of control | endpoint: median survival time, dose: 3.8 grams/kg/injection, schedule: Q04DX003 (ip), vehicle: saline 106 % of control | endpoint: median survival time, dose: 3.8 grams/kg/injection, schedule: Q04DX003 (iv), vehicle: saline 112 % of control | endpoint: median survival time, dose: 3.8 grams/kg/injection, schedule: Q08DX002 (ip), vehicle: saline 106 % of control | endpoint: median survival time, dose: 7.5 grams/kg/injection, schedule: Q01DX001 (ip), vehicle: saline 100 % of control | endpoint: median survival time, dose: 7.5 grams/kg/injection, schedule: Q01DX001 (iv), vehicle: saline 100 % of control | endpoint: median survival time, dose: 7.5 grams/kg/injection, schedule: Q01DX005 (ip), vehicle: saline 112 % of control | endpoint: median survival time, dose: 7.5 grams/kg/injection, schedule: Q01DX005 (iv), vehicle: saline 106 % of control | endpoint: median survival time, dose: 7.5 grams/kg/injection, schedule: Q01DX009 (ip), vehicle: saline 100 % of control | endpoint: median survival time, dose: 7.5 grams/kg/injection, schedule: Q03HX008 (ip), vehicle: saline 112 % of control | endpoint: median survival time, dose: 7.5 grams/kg/injection, schedule: Q04DX003 (ip), vehicle: saline 100 % of control | endpoint: median survival time, dose: 7.5 grams/kg/injection, schedule: Q04DX003 (iv), vehicle: saline 106 % of control | endpoint: median survival time, dose: 7.5 grams/kg/injection, schedule: Q08DX002 (ip), vehicle: saline 112 % of control | endpoint: median survival time, dose: 15.0 grams/kg/injection, schedule: Q01DX001 (ip), vehicle: saline 112 % of control | endpoint: median survival time, dose: 15.0 grams/kg/injection, schedule: Q01DX009 (ip), vehicle: saline 118 % of control | endpoint: median survival time, dose: 15.0 grams/kg/injection, schedule: Q04DX003 (ip), vehicle: saline 112 % of control | endpoint: median survival time, dose: 15.0 grams/kg/injection, schedule: Q08DX002 (ip), vehicle: saline 106 % of control

c1ccc2c(c1)cnc1cc3c(cc12)ncc1ccccc13
inactive: endpoint: mean survival time, dose: 100.0 mg/kg/injection, schedule: Q01DX001 (ip), vehicle: saline 98 % of control | endpoint: mean survival time, dose: 200.0 mg/kg/injection, schedule: Q01DX001 (ip), vehicle: saline 106 % of control | endpoint: mean survival time, dose: 400.0 mg/kg/injection, schedule: Q01DX001 (ip), vehicle: saline 116 % of control

O=C(/C=C/c1ccccc1)NC(=S)NCc1ccccc1Cl
inactive: [1] 95 % of control and 96 % of control | endpoint: mean survival time, dose: 100.0 mg/kg/injection, schedule: Q01DX001 (ip), vehicle: saline with Tween-80 94 % of control | [2] 95 % of control and 110 % of control | endpoint: mean survival time, dose: 200.0 mg/kg/injection, schedule: Q01DX001 (ip), vehicle: saline with Tween-80 92 % of control | [3] 90 % of control and 95 % of control | endpoint: mean survival time, dose: 400.0 mg/kg/injection, schedule: Q01DX001 (ip), vehicle: saline with Tween-80 95 % of control | [4] 98 % of control and 101 % of control

CN(C)CC1CCCCC(Br)C1=O (stereo not drawn)
inactive: endpoint: mean survival time, dose: 75.0 mg/kg/injection, schedule: Q01DX001 (ip), vehicle: saline 98 % of control | endpoint: mean survival time, dose: 150.0 mg/kg/injection, schedule: Q01DX001 (ip), vehicle: saline 107 % of control | endpoint: mean survival time, dose: 300.0 mg/kg/injection, schedule: Q01DX001 (ip), vehicle: saline 117 % of control

CCOC(=O)C[Si](C)(C)C
inactive: endpoint: mean survival time, dose: 25.0 mg/kg/injection, schedule: Q01DX005 (ip), vehicle: water 101 % of control | endpoint: mean survival time, dose: 50.0 mg/kg/injection, schedule: Q01DX005 (ip), vehicle: water 104 % of control | endpoint: mean survival time, dose: 100.0 mg/kg/injection, schedule: Q01DX005 (ip), vehicle: water 101 % of control | endpoint: mean survival time, dose: 200.0 mg/kg/injection, schedule: Q01DX005 (ip), vehicle: water 104 % of control | endpoint: mean survival time, dose: 400.0 mg/kg/injection, schedule: Q01DX005 (ip), vehicle: water 101 % of control

CCO[Si](C)(CCCOCC1CO1)OCC (stereo not drawn)
inactive: endpoint: mean survival time, dose: 50.0 mg/kg/injection, schedule: Q01DX009 (ip), vehicle: Klucel (hydroxypropylcellulose) (HPC) 102 % of control | endpoint: mean survival time, dose: 100.0 mg/kg/injection, schedule: Q01DX009 (ip), vehicle: Klucel (hydroxypropylcellulose) (HPC) 100 % of control | endpoint: mean survival time, dose: 200.0 mg/kg/injection, schedule: Q01DX009 (ip), vehicle: Klucel (hydroxypropylcellulose) (HPC) 94 % of control

CCCCC(CCCC)c1ccccn1
inactive: endpoint: mean survival time, dose: 6.25 mg/kg/injection, schedule: Q01DX009 (ip), vehicle: saline with Tween-80 91 % of control | [5] 96 % of control | [6] 96 % of control

O=C(O)c1c(Cl)ccc(F)c1Cl
inactive: [2] 105 % of control | [3] 105 % of control | [4] 94 % of control

C=C(C)CON=C(c1ccccc1)c1ccccc1
inactive: [7] 98 % of control | [8] 96 % of control | [9] 98 % of control

CN(C)c1ccc(C(Cc2ccc(Nc3ccccc3)c3ccccc23)=C2C=CC(=[N+](C)C)C=C2)cc1
inactive: endpoint: mean survival time, dose: 3.13 mg/kg/injection, schedule: Q01DX001 (ip), vehicle: saline 96 % of control | endpoint: mean survival time, dose: 6.25 mg/kg/injection, schedule: Q01DX001 (ip), vehicle: saline 93 % of control | endpoint: mean survival time, dose: 12.5 mg/kg/injection, schedule: Q01DX001 (ip), vehicle: saline 118 % of control and 93 % of control | endpoint: mean survival time, dose: 25.0 mg/kg/injection, schedule: Q01DX001 (ip), vehicle: saline 106 % of control

CCCC(C(=O)OCC)C1=NC(C)(C)CC(C)O1 (stereo not drawn)
inactive: endpoint: mean survival time, dose: 100.0 mg/kg/injection, schedule: Q04DX003 (ip), vehicle: acetone 100 % of control | endpoint: mean survival time, dose: 200.0 mg/kg/injection, schedule: Q04DX003 (ip), vehicle: acetone 102 % of control | endpoint: mean survival time, dose: 400.0 mg/kg/injection, schedule: Q04DX003 (ip), vehicle: acetone 94 % of control

CC[S+](CC)CC
inactive: endpoint: mean survival time, dose: 50.0 mg/kg/injection, schedule: Q01DX009 (ip), vehicle: saline 100 % of control | endpoint: mean survival time, dose: 100.0 mg/kg/injection, schedule: Q01DX009 (ip), vehicle: saline 97 % of control

COc1cc2ccnc(Nc3ccccc3)c2cc1OC
inactive: [2] 95 % of control | [3] 95 % of control | [4] 87 % of control

CC(Oc1ccccc1-c1ccccc1)C(=O)N(C)C (stereo not drawn)
inactive: [5] 93 % of control and 102 % of control | [6] 95 % of control and 100 % of control | [1] 97 % of control and 104 % of control | [7] 97 % of control and 104 % of control | [8] 95 % of control and 102 % of control | [9] 97 % of control and 104 % of control

Cc1ccc(S(=O)(=O)O/N=C2/CCSc3ccccc32)cc1
inactive: endpoint: mean survival time, dose: 100.0 mg/kg/injection, schedule: Q01DX001 (ip), vehicle: acetone 100 % of control | endpoint: mean survival time, dose: 200.0 mg/kg/injection, schedule: Q01DX001 (ip), vehicle: acetone 97 % of control | endpoint: mean survival time, dose: 400.0 mg/kg/injection, schedule: Q01DX001 (ip), vehicle: acetone 97 % of control
